US7897369B2, “Isoprenoid wax ester synthases, isoprenoid acyl CoA-synthetases, and uses thereof” (Regents of the University of Minnesota, priority 2007, dated 2011)

Legend:
[1] = test system: S. cerevisiae H1246 expressing WS2; test: Heterologous expression of WS2 in TAG deficient yeast, FAEE by TLC; type: cell-based, Saccharomyces cerevisiae; details: H1246 given both ethanol and oleic acid as substrates
Experimental: Fifteen milliliters of grown yeast were centrifuged for 10 minutes at 4000 rpm. The cell pellets were vortexed vigorously with glass beads for 5 minutes to lyse open cells and extracted with 1 mL chloroform of which 5 μL were spotted on TLC with Whatman normal phase silica gel 60 plates and developed using hexane:diethyl ether:acetic acid (90:10:1, v/v/v). TLC plates were stained with either iodine vapor.

[2] = test system: S. cerevisiae YGL035c expressing WS2; test: Heterologous expression of WS2 in MIG1 deletion yeast, ethyloleate by TLC and GC; type: cell-based, Saccharomyces cerevisiae
Experimental: S. cerevisiae YGL035c BY4742 with following genotype: MATalpha his3Δ1 leu2Δ0 lys2Δ0 ura3Δ0 ΔMIG1 was purchased from ATCC ([…]; Manassas, Va.). S. cerevisiae YGL035c was cultivated for electro transformation in YPG (Yeast peptone glucose) medium at 30° C. overnight. 100 μL of washed yeast cell pellets were electroporated with 5 μL of pESC_URA for the negative control or 5 μL of pESC URA WS2, which expresses acyltransferase gene constructs. Cells were rescued with 800 μL 1M sorbitol and 200 μL were plated onto synthetic minimal media drop out agar plates without uracil. Colonies were seen after 2 days and were picked and grown in nitrogen base medium (Difco Detroit Mich.) […], and 0.13% (wt/vol), synthetic dropout medium supplement without uracil, and 2% (wt/vol) glucose. One hundred milliliter yeast cultures were grown aerobically overnight at 30° C. in 250 ml flask with synthetic dropout uracil growth media with glucose. Cells were spun down and resuspended in 200 mL of fresh dropout media with 2% glucose, 0.1% potassium oleate, and 2% galactose to induce expression of heterologous protein. Cultures were capped with a rubber stopper with syringe needle piercing the top of the rubber stopper to allow gas (carbon dioxide) to exit during the 72 hours anaerobic growth. Cells were harvested and resuspended in 1 mL of chloroform and approximately 0.5 grams of glass beads. Total lipid composition of yeast was determined from cells harvested from a 200-ml liquid culture, broken with glass-beads in a 50-mL Falcon tube, and extracted into 1.5 mL of chloroform.
Cells were vortexed vigorously for 5 minutes to lyse open cells and chloroform was removed and evaporated under nitrogen gas. 15 mL sample of 250 mL cultures were centrifuged and lysed with glass beads, the yeast lysates were resuspended in 1 ml chloroform for GC/MS analysis and TLC analysis.
Fifteen milliliters of grown yeast were centrifuged for 10 minutes at 4000 rpm. […]
For quantification of ethyloleate, chloroform extractions of three known amounts (1.5 nmoles, 15 nmoles, and 30 nmoles) of ethyloleate standard were injected into the gas chromatograph (GC) in which the peak areas were integrated to calculate the amounts of ethyloleate produced by YGL035c expressing WS2. Three microliters of chloroform extracts from the samples were injected and analyzed on a gas chromatography electron impact mass spectrometry that were performed with a Hewlett Packard 6890 series gas chromatograph connected to an HP 5973 mass spectrometer. […]

[3] = test system: Acs2/WS2; test: Acs2/WS2-coupled assay with oleic acid and ethanol (TLC); type: biochemical, Marinobacter hydrocarbonoclasticus; details: oleic acid and ethanol as substrates, each 250 μM, 37° C. overnight
Experimental: In vitro coupled assays/TLC analysis—Stock solutions of various fatty acid substrates (oleic acid) were prepared in 50 mM Tris-HCl buffer (pH 8) containing 1% gum arabic, […], 0.1% taurocholate, and 100 mM of fatty acid. WS/Acs enzyme coupled assays were carried out in 500 μL reactions containing 50 mM Tris-HCl buffer pH 8.0, 12.5 μL of fatty acid stock solution and addition of ethyl alcohol solution (final concentrations of each substrate 250 μM), 10 mM MgCl2, 10 mM CoASH, 10 mM ATP, 5 mM TCEP, 0.1 U of inorganic pyrophosphatase, 0.25 μg of Acs2 (acyl CoA synthetase) and 0.5 μg of WS2 (wax ester synthase). Assays were incubated at 37° C. overnight before thin-layer chromatography (TLC) analysis of reaction products. In vitro WS assay samples were extracted with 500 μL of chloroform:methanol (1:1 [vol/vol]), and chloroform:methanol extracts were analyzed by TLC with Whatman normal phase silica gel 60 plates where products were separated using hexane:diethyl ether:acetic acid (90:10:1 [vol/vol/vol]). Products were compared to an ethyloleate standard. Resolved TLC plates were stained with iodine vapor.

Compound	Ethyloleate production in vivo (TLC) [1]	Ethyloleate formed from the oleate added ([2]; 250 mL culture, 889 μmoles oleate added)	Ethyloleate production in vivo (TLC) ([2]; Mig1 deletion yeast expressing pESC-URA-WS2, galactose induced, grown anaerobically with 0.1% potassium oleate)	Ethyloleate production in vivo (TLC) ([2]; potassium oleate not supplemented)	Ethyloleate formation in Acs2/WS2-coupled assay (TLC) [3]	% Efficiency oleate to ethyloleate ([2]; 0.1% (wt/vol) oleate in 250 mL (889 μmoles)) [%]
CCCCCCCC/C=C\CCCCCCCC(=O)OCC [ethyloleate]	produced in vivo	approximately 50 μmol	shown in vivo	No ethyloleate product was seen	–	–
CCCCCCCC/C=C\CCCCCCCC(=O)O [oleic acid]	–	–	–	–	ethyloleate ester product was synthesized in vitro	5.5
